US6642215B2 (Leo Pharma A/S, priority 2001, dated 2003)
Where two headings read alike, the source gives them in different places.

Columns and labels:
[1] = tested on: NF-κB; test: EMSA of NF-κB DNA binding activity in nuclear extracts of LPS-stimulated THP-1 cells; assay type: cell-based, human; settings: 1 μM compound 24 h
Description: EMSA: For preparation of nuclear extracts, 10^7 cells were used at each experimental point. Following treatment of the THP-1 cells with either 1 μM of compound A for 24 h and stimulation with 1 μg/ml LPS at the indicated times, the cells were washed twice in PBS, and the cells were extracted for protein. The cells were resuspended in 500 μl buffer A (20 mM HEPES (pH 7.8), 0.1 mM EDTA, 10 mM KCL) with a protease inhibitor mixture (1 mM DTT, 0.5 mM Pefablock). Afterwards, the cells were incubated on ice for 15 min, then 30 μl 10% NP 40 was added and the cells were centrifuged at 5000×g. Each cell pellet was then resuspended in 50 μl buffer B (buffer A with 400 mM NaCl) and vortexed, followed by incubation for 15 min at 4° C. and centrifugation at 5000×g for 5 min at 4° C. The supernatant from each cell pellet was collected and the protein concentration quantified using the BCA-200 protein assay kit from Pierce (Rockford, Ill., USA). The nuclear extracts were stored at −80° C.
Double-stranded κB oligos (5′-AGTTGAGGGGACTTTCCCAGGC-3′ and the complement strand) were purchased from Promega. […] After electrophoresis at 4° C., the gel was dried, and the protein-DNA complexes were visualized and quantified on the STORM 860 Phospholmager using the ImageQuaNT software (available from Molecular Dynamics).

[2] = target: T1, IKK (Homo sapiens, UniProt O14920); test: In vitro kinase assay: IKK immunoprecipitated from LPS-stimulated THP-1 cells, GST-IκBα phosphorylation; assay type: biochemical; settings: 30 min pretreatment of LPS-activated IKK
T1 construct: IKK was immunoprecipitated with an IKKα/β antibody; endogenous in cells; host or cells: THP-1 cells stimulated with 1 μg/ml LPS; whole cell extract immunoprecipitated with an IKKα/β antibody (Santa Cruz)
T1 sequence (O14920 whole entry): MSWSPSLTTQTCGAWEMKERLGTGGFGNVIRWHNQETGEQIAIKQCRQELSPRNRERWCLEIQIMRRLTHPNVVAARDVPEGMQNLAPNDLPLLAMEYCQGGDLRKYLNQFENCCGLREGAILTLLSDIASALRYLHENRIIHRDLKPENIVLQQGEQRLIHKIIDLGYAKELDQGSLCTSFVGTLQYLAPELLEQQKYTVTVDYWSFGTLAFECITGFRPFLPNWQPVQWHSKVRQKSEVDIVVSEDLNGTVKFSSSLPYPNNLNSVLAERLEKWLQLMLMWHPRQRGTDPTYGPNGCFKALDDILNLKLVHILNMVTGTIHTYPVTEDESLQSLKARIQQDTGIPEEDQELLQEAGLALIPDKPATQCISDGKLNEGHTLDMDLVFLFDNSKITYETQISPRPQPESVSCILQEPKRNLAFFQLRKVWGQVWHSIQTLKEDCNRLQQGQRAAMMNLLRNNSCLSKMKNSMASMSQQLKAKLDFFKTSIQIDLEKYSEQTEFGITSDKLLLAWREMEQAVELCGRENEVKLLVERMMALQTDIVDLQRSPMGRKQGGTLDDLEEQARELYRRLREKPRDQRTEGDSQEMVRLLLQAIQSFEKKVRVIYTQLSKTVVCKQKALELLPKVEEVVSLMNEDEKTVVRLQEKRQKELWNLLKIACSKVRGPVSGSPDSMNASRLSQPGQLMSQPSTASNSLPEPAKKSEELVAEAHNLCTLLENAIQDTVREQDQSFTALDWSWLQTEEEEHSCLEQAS
T1 sequence (O15111 whole entry partner): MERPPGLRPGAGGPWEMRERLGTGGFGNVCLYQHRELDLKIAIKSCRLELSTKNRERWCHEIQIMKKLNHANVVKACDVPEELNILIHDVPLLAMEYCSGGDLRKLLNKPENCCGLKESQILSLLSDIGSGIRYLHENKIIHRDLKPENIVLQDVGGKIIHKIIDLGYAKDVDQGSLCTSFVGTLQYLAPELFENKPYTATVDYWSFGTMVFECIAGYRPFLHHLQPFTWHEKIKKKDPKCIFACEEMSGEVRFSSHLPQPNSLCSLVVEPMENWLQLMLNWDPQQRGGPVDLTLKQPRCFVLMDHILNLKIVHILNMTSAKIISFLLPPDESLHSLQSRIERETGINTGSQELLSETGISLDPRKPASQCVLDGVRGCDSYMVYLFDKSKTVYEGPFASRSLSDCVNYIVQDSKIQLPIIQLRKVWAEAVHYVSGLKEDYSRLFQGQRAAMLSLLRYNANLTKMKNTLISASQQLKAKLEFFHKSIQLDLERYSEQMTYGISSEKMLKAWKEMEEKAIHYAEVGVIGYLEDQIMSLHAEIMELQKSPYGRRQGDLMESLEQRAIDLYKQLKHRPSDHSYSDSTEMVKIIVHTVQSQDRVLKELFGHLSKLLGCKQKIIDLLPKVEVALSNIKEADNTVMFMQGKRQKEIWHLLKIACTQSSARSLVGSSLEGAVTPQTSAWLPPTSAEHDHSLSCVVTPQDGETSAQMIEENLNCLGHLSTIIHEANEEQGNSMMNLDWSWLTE
T1 sequence (Q9Y6K9 whole entry partner): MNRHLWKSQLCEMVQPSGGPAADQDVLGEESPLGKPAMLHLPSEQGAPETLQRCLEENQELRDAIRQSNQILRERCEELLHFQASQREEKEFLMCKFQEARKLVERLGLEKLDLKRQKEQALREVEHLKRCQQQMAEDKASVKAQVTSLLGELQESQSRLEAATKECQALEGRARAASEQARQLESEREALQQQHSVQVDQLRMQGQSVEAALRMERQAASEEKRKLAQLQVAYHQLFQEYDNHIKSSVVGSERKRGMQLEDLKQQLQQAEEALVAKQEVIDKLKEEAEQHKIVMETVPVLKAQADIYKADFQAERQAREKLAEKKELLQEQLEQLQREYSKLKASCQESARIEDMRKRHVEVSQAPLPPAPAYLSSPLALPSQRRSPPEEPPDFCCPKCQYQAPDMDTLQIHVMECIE
Description: In vitro kinase assay: THP-1 cells (1×10^7 cells) were stimulated with 1 μg/ml LPS for the indicated time periods and whole cell extracts were prepared as described above. IKK was immunoprecipitated with an IKKα/β antibody (raised against amino acid 470-755 of IKKβ of human origin but partially cross-reactive with IKKα as detected by Western Blotting (Santa Cruz Biotechnology Inc.). Compound A was diluted in kinase buffer (25 mM HEPES pH 7.5, 10 mM magnesium acetate, 50 μM ATP) at the appropriate concentrations. The compound was added to the beads for 30 min. at 30° C. The kinase reaction was started by adding 2.5 μg of the GST-IκBα substrate (Santa Cruz Biotechnology Inc.) together with 2 μCi γ-^32P-ATP (Amersham Pharmacia Biotech) per sample. The reaction was allowed to proceed for 30 min. at 30° C., and the IKK activity was measured by the amount of radioactive-labelled GST-IκBα bands, quantified by the STORM860 Phospho-Imager.
A general problem with the kinase assay is prestimulation of the kinase. To achieve a value for the zero-point, the LPS-activated IKK mixture was incubated with 20 μM myricetin (Sigma-Aldrich), which is a known IKKβ inhibitor (S. H. Tsal et al., J. Cell Biochem. 74, 1999, pp. 606-615). This value was subtracted from the all other values. All data are expressed as percentage of the activity of the LPS-activated IKKβ kinase treated with 0.1% DMSO.

[3] = tested on: PC-3 cells; test: DNA synthesis (tritiated thymidine incorporation) in PC-3 cells; assay type: cell-based; settings: Homo sapiens, 144 h incubation, mean ± SD of two to four experiments
Description: (§1) DNA synthesis: NYH SCLC, HT-1080, Colo-320, PC-3 and H460 cells (7.5×10^3 cells/ml) were seeded in tissue culture vessels and the test compound were added 2 h after plating. Following an incubation for 144 h tritiated thymidine (5 CI/mmol, Amersham Pharmacia Biotech) was added to the culture at the concentration of 1 μCi/ml, and the cells were incubated for additional 4 h. The incorporated thymidine was measured with a β-counter. Each compound concentration was tested in triplicate.

[4] = tested on: Colo-320 cells; test: DNA synthesis (tritiated thymidine incorporation) in Colo-320 cells; assay type: cell-based; settings: Homo sapiens, 144 h incubation, mean ± SD of two to four experiments
Description: as §1

[5] = tested on: PC-3 Xenografts; test: PC-3 xenografts in nude mice, tumour growth; assay type: in vivo, NMRI nu/nu mice; settings: PC-3 xenograft, 50 mg/kg, oral gavage
Description: (§2) All of the animal experiments were conducted according to the guidelines and ethical standards of the Danish Committee for Animal Experiments. Female NMRI nu/nu mice 6 weeks of age were purchased from M&B (Ry, Denmark). The mice were allowed an acclimatisation period of 1-3 weeks before start of the experiments. The nude mice were housed in Scantainers under semi-sterile conditions and all handling of mice was performed in a laminar flow bench.
PC-3 Xenografts. NMRI nu/nu mice were injected with 1×10^6 cells in 0.2 ml media s.c. in each flank and tumour size was measured as mentioned above. Compound A was given for four weeks by oral gavage from day 14 when the tumour size was about 12 mm^2. Each treatment group consisted of 10 mice.
(§3) Statistical Methods In the animal models, tumour sizes were expressed by the mean of the trends in each treatment group. The trend is the linear increment or tumour size, where tumour size is the square root of the (mean) area of the tumour(s). Comparison with controls was expressed as T/C % and calculated as follows:
(§4) A=(overall mean tumour size at baseline+mean trend of treatment*intended days of treatment) […]
(§5) Overall mean tumour size at baseline=pooling all treatments this is the mean of all baseline values. For each mouse the baseline value is calculated as the square root of the (mean) area of the tumour(s). […]

[6] = tested on: Colo-320 DM; test: Colo-320 DM xenografts in nude mice, tumour growth; assay type: in vivo, NMRI nu/nu mice; settings: Colo-320 xenograft, 50 mg/kg, oral gavage
Description: as §2
Colo-320 DM, NMRI nu/nu mice were injected with 5×10^6 cells in 0.2 ml media s.c. in each flank and tumour size was measured as mentioned above. Compound A was given for three weeks by oral gavage from day 8 when the tumour size was about 20 mm^2. Each treatment group consisted of 10 mice.
as §3, §4, §5

Q: `N#CNC(=Nc1ccncc1)NCCCCCCOc1ccc(Cl)cc1` [compound A, N-(6-(4-chlorophenoxy)hexyl)-N′-cyano-N″-(4-pyridyl)guanidine] was tested. Which “NF-κB DNA-binding activity suppressed compared to the control” value ([1]; after 0.5 to 4 h of LPS-stimulation) did it give?
A: 2 fold

Q: What about the “NF-κB DNA-binding activity suppressed compared to the control” value ([1]; after 24 h of LPS-stimulation) of the same molecule?
A: 5 fold

Q: And the IC50 ([2]; four independent experiments, read-out: IKK activity IC50, range of values)?
A: 0.9 to 70 nM

Q: What about the IC50 ([2]; mean of four independent experiments, read-out: IKK activity, mean IC50 value) of the same molecule?
A: 8 nM

Q: What about the IC50 [3] of the same molecule?
A: 5.6 ± 0.3 nM

Q: And the IC50 [4]?
A: 5.4 ± 0.1 nM

Q: And the “In vivo xenografts in nude mice T/C (%)” value [5]?
A: −5%

Q: And the “In vivo xenografts in nude mice T/C (%)” value [6]?
A: −50%
